From patent publication US8598084B2, “Synergistic herbicide/insecticide composition containing certain pyridine carboxylic acids and certain insecticides” (priority 2010, dated 2013)
Where “and” joins values, the source holds several entries; their conditions need not be identical. Equal values may be shown once.

How the values were obtained:
Assay type in all cases: in vivo
[1] = tested on: redroot pigweed (Amaranthus retroflexus L; AMARE); assay: Postemergence herbicidal activity of mixtures, greenhouse, visual injury vs control; conditions: 17.5 g/ha alone
Protocol: (§1) Evaluation of Postemergence Herbicidal Activity of Mixtures in Cereal Crops
(§2) Seeds of the desired test plant species were planted in Sun Gro MetroMix® 306 planting mixture, which typically has a pH of 6.0 to 6.8 and an organic matter content of about 30 percent, in plastic pots with a surface area of 103.2 square centimeters (cm^2). When required to ensure good germination and healthy plants, a fungicide treatment and/or other chemical or physical treatment was applied. The plants were grown for 7-36 days (d) in a greenhouse with an approximate 14 hour (h) photoperiod which was maintained at about 18° C. during the day and 17° C. during the night. Nutrients and water were added on a regular basis and supplemental lighting was provided with overhead metal halide 1000-Watt lamps as necessary. The plants were employed for testing when they reached the second or third true leaf stage.
(§3) Treatments consisted of an insecticidal compound (as listed in Tables 1 through 18) and the cereal herbicide, 4-amino-3-chloro-6-(4-chloro-2-fluoro-3-methoxyphenyl)pyridine-2-carboxylic acid, alone and in combination. Weighed amounts of esters (methyl) or salts (triethylammonium, TEA) of 4-amino-3-chloro-6-(4-chloro-2-fluoro-3-methoxyphenyl)pyridine-2-carboxylic acid (Compound I) were placed in 25 milliliter (mL) glass vials and dissolved in a volume of 97:3 volume per volume (v/v) acetone/dimethyl sulfoxide (DMSO) to obtain 4.5 milligrams active ingredient per mL (mg ai/mL) concentrated solutions. […] The concentrated solutions of Compound I were diluted to 1.5 mg ai/mL with the addition of 2 volumes of an aqueous mixture containing acetone, water, isopropyl alcohol, DMSO, Agri-dex crop oil concentrate, and Triton® X-77 surfactant in a 64.7:26.0:6.7:2.0:0.7:0.01 v/v ratio. A dilution solution was prepared by mixing 1 volume of 97:3 v/v acetone/DMSO and 2 volumes of an aqueous mixture containing acetone, water, isopropyl alcohol, DMSO, Agri-dex crop oil concentrate, and Triton® X-77 surfactant in a 64.7:26.0:6.7:2.0:0.7:0.01 v/v ratio. Compound requirements are based upon a 12 mL application volume at a rate of 187 liters per hectare (L/ha). The concentrated solutions of the cereal insecticides were prepared following the same procedure. Weighed amounts of insecticide were placed in 25 milliliter (mL) glass vials and dissolved in a volume of 97:3 v/v acetone/DMSO to obtain concentrated insecticide solutions. The concentrated solutions of the safener were prepared following the same procedure. Weighed amounts of safener were placed in 25 mL glass vials and dissolved in a volume of 97:3 v/v acetone/DMSO to obtain concentrated safener solutions. The concentrated solutions were diluted to 0.75 mg/mL with an aqueous mixture of 1.5% v/v of Agri-dex crop oil concentrate.
(§4) Spray solutions of the cereal herbicide and the insecticidal compound mixtures were prepared by adding the concentrated solutions to the appropriate amount of dilution solution to form 12 mL spray solution with active ingredients in combinations. Spray solutions of the cereal herbicide, herbicide safener and the insecticidal compound mixtures were prepared by adding the concentrated solutions to the appropriate amount of dilution solution to form 12 mL spray solution with active ingredients in combinations. Formulated compounds were applied to the plant material with an overhead Mandel track sprayer equipped with 8002E nozzles calibrated to deliver 187 L/ha over an application area of 0.503 square meters (m^2) at a spray height of 18 inches […] above average plant canopy. Control plants were sprayed in the same manner with the solvent blank.
(§5) The treated plants and control plants were placed in a greenhouse as described above and watered by sub-irrigation to prevent wash-off of the test compounds. […]

[2] = tested on: scented mayweed (Matricaria chamomila L; MATCH); assay: as above
Protocol: as §1, §2, §3, §4, §5

[3] = tested on: wild pansy (Viola tricolor L; VIOTR); assay: as above
Protocol: as §1, §2, §3, §4, §5

[4] = tested on: Russian thistle (Salsola iberica L; SASKR); assay: as above
Protocol: as §1, §2, §3, §4, §5

[5] = tested on: bird's-eye speedwell (Veronica persica L; VERPE); assay: as above; conditions: Veronica persica, post-emergence, read-out: Ob (observed injury);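 also: visual score 0 means no injury and 100 means complete kill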
Protocol: as §1, §2, §3, §4, §5

[6] = tested on: Canada thistle (Cirsium arvense L; CIRAR); assay: as above; conditions: 17.5 g/ha alone
Protocol: as §1, §2, §3, §4, §5

[7] = tested on: kochia (Kochia scoparia L; KCHSC); assay: as above
Protocol: as §1, §2, §3, §4, §5

[8] = tested on: barley (Hordeum vulgare L; HORVS); assay: Postemergence crop injury and safening, greenhouse, visual injury vs control
Protocol: as §1, §2, §3, §4, §5

[9] = tested on: wheat (Triticum aestivum L; TRZAS); assay: as above
Protocol: as §1, §2, §3, §4, §5

[10] = application rate g/ha: Compound I methyl ester 35, Malathion 0, Cloquintocet 0

COC(=O)c1nc(-c2ccc(Cl)c(OC)c2F)cc(N)c1Cl [Compound I Methyl ester, 4-amino-3-chloro-6-(4-chloro-2-fluoro-3-methoxyphenyl)pyridine-2-carboxylic acid methyl ester]
Ob (observed injury) [1]: 90%
pest or weed control at 8.75 g/ha ([2]; Matricaria, post-emergence, 8.75 g/ha alone, read-out: Ob (observed injury)): 67%
pest or weed control at 17.5 g/ha ([2]; Matricaria, post-emergence, 17.5 g/ha alone, read-out: Ob (observed injury)): 80%
pest or weed control at 35 g/ha ([2]; Matricaria, post-emergence, 35 g/ha alone, read-out: Ob (observed injury)): 88%
MATCH Ob [2, 10]: 88
pest or weed control at 8.75 g/ha ([3]; Viola tricolor, post-emergence, 8.75 g/ha alone, read-out: Ob (observed injury)): 36%
pest or weed control at 17.5 g/ha ([3]; Viola tricolor, post-emergence, 17.5 g/ha alone, read-out: Ob (observed injury)): 44%
pest or weed control at 35 g/ha ([3]; Viola tricolor, post-emergence, 35 g/ha alone, read-out: Ob (observed injury)): 56%
VIOTR Ob [3, 10]: 56
pest or weed control at 8.75 g/ha ([4]; Salsola tragus, post-emergence, 8.75 g/ha alone, read-out: Ob (observed injury)): 71%
pest or weed control at 17.5 g/ha ([4]; Salsola tragus, post-emergence, 17.5 g/ha alone, read-out: Ob (observed injury)): 81%
pest or weed control at 35 g/ha ([4]; Salsola tragus, post-emergence, 35 g/ha alone, read-out: Ob (observed injury)): 89%
SASKR Ob [4, 10]: 89
pest or weed control at 8.75 g/ha ([5]; 8.75 g/ha alone): 36%
pest or weed control at 17.5 g/ha ([5]; 17.5 g/ha alone): 47%
pest or weed control at 35 g/ha ([5]; 35 g/ha alone): 73%
Ob (observed injury) [6]: 62%
pest or weed control at 8.75 g/ha ([7]; Bassia scoparia, post-emergence, 8.75 g/ha alone, read-out: Ob (observed injury)): 79%
pest or weed control at 17.5 g/ha ([7]; Bassia scoparia, post-emergence, 17.5 g/ha alone, read-out: Ob (observed injury)): 88%
pest or weed control at 35 g/ha ([7]; Bassia scoparia, post-emergence, 35 g/ha alone, read-out: Ob (observed injury)): 97%
KCHSC Ob [7, 10]: 97
Ob (observed injury) ([8]; 35 g/ha alone, crop injury): 28% and 32%
HORVS Ob [8, 10]: 32
Ob (observed injury) ([9]; 35 g/ha alone, crop injury): 39% and 41%
TRZAS Ob [9, 10]: 41
